According to patent US4748185A, “4-hydroxycoumarin derivatives” (priority 1985, dated 1988):
Like-named read-outs stand apart in the source and are kept apart here.

Key:
[1] = test system: test animal (rat); test: Acute oral LD50; type: in vivo; conditions: polyethylene glycol 200/triethanolamine 9:1 w/w
Procedure: For some compounds, LD50 data has also been generated, as follows.
Compounds were dissolved in a mixture of polyethylene glycol 200 and triethanolamine (9:1 w/w) and serially diluted with the same solvent system to given concentrations of: 10.0, 4.64, 2.15, 1.00, 0.464, 0.215, 0.10, milligrammes per milliliter (mgml^-1).
As these concentrations represent a known number of milligrammes per milliliter, administration of any solution to the test animal at the rate of 1 milliliter per 1 kilogramme of bodyweight delivers a dose (in mgkg^-1) numerically equivalent to the concentration of that solution.
Thus appropriate doses were a range of four consecutive oral doses from the series of concentration sufficient to cause low group mortality at the lowest dose, and high group mortality at the highest dose. Acute oral LD50 's were then determined by reference to the tables in Horns' paper "Simplified LD50 (or ED50) Calculations", Biometrics, 12, 311-322.

[2] = test system: prothrombin time; test: Anticoagulant activity by measurement of the prothrombin time (3-day ED50, intraperitoneal, modified one-step method of Quick); type: in vivo, Wistar-strain male rats; conditions: Rattus norvegicus, S100, ip, 72 h, read-out: 3-day ED50
Procedure: Anticoagulant activity of the compounds of Examples 1 to 11 was determined by measurement of the prothrombin time, which is a measure of blood-clotting properties and is a reliable indicator of efficacy for an anticoagulant rodenticide. The procedure for measurement of prothrombin time is based on Quick et al, Am. J. Med. Sci., 190, 501 to 511, 1935.
Prothrombin times were determined according to the following specific procedures. Test compounds were dissolved in a mixture of polyethylene glycol 200 (i.e. polyethylene glycol of average molar mass 200) and triethanolamine (9:1 w/w) and serially diluted with the same solvent system to give concentrations of; 5.0, 2.5, 1.0, 0.9, 0.8, 0.7, 0.6, 0.5, 0.45, 0.40, 0.35, 0.30, 0.25, 0.2 and 0.1 milligrammes per milliliter (mgml^-1).
As these concentrations represent a known number of milligrammes per milliliter administration of any solution to the test animal at the rate of 1 milliliter per 1 kilogramme of bodyweight (eg. a 250 g rat is administered 0.25 ml) delivers a dose (in mg kg^-1) numerically equivalent to the concentration of that solution. In this instance the terms concentration and dose are synonymous.
Thus, appropriate doses were a range of at least three consecutive doses from the above series of concentrations which it was estimated would induce a range of prothrombin time elevations between 0 to 100% such that a dose-response curve could be constructed for that analogue.
The doses were injected into test animals (200 to 250 g Wistar-strain male rats) by the interperitoneal route. Three days after injection, blood was withdrawn by cardiac puncture whilst the animals were held under "Halothane" anaesthesia.
Three rats were used in each test of a particular compound and three prothrombin time determinations were carried out on each blood sample. Prothrombin times were determined using the modified one-step method of Quick. The percentage extension time of each prothrombin time was determined by assigning 0% extension time to an arbitrary prothrombin resting time of 12 seconds, and 100% extension time to a prothrombin time elevated to an arbitrary 212 seconds. Results were plotted on log-probability graph paper, the best-line fitted, and the prothrombin time ED50 read from the graph.

[3] = prothrombin time ED50, single intraperitoneal injection, male Wistar rats, blood taken three days after injection, 0% = 12 s, 100% = 212 s

| Compound | LD50 [1] [mg/kg] | ED50 [2] [mg/kg] | ED50 [2, 3] [mg/kg] |
| --- | --- | --- | --- |
| O=c1oc2ccccc2c(O)c1C1CC(c2ccc(-c3ccccc3)cc2)Cc2ccccc21 (stereo not drawn) [Difenacoum, reference compound] | 1.80 | 0.56 |  |
| O=c1oc2ccccc2c(O)c1C1CC(c2ccc(-c3ccc(OCc4ccc(C(F)(F)F)cc4)cc3)cc2)Cc2ccccc21 (stereo not drawn) [Example 1, 3-{3-[4'-(4-trifluoromethylbenzyloxy)biphenyl-4-yl]-1,2,3,4-tetrahydro-1-naphthyl}-4-hydroxycoumarin] | 0.32 to 0.4 |  | 0.4 |
| N#Cc1ccc(COc2ccc(-c3ccc(C4Cc5ccccc5C(c5c(O)c6ccccc6oc5=O)C4)cc3)cc2)cc1 (stereo not drawn) [Example 2, 3-{3-[4'-(4-cyanobenzyloxy)biphenyl-4-yl]-1,2,3,4-tetrahydro-1-naphthyl}-4-hydroxycoumarin] |  |  | 1.6 |
| O=c1oc2ccccc2c(O)c1C1CC(c2ccc(-c3ccc(OCc4ccc(Br)cc4)cc3)cc2)Cc2ccccc21 (stereo not drawn) [Example 3, 3-{3-[4'-(4-bromobenzyloxy)biphenyl-4-yl]-1,2,3,4-tetrahydro-1-naphthyl}-4-hydroxycoumarin] | 0.4 to 1.0 |  | 0.74 |
| O=c1oc2ccccc2c(O)c1C1CC(c2ccc(-c3ccc(-c4ccccc4)cc3)cc2)Cc2ccccc21 (stereo not drawn) [Example 4, 3-[3-(4'-terphenyl-4-yl)-1,2,3,4-tetrahydro-1-naphthyl]-4-hydroxycoumarin] | 1.0 |  | 0.55 |
| O=c1oc2ccccc2c(O)c1C1CC(c2ccc(OCc3ccc(-c4ccccc4)cc3)cc2)Cc2ccccc21 (stereo not drawn) [Example 5, 3-{3-[4-(4-phenylbenzyloxy)phenyl]-1,2,3,4-tetrahydro-1-naphthyl}-4-hydroxycoumarin] | 0.4 to 1.0 |  | 0.4 |
| O=c1oc2ccccc2c(O)c1C1CC(c2ccc(OCc3ccc(-c4ccc(Br)cc4)cc3)cc2)Cc2ccccc21 (stereo not drawn) [Example 6, 3-{3-[4-(4'-bromobiphenyl-4-ylmethoxy)phenyl]-1,2,3,4-tetrahydro-1-naphthyl}-4-hydroxycoumarin] |  |  | 0.72 |
| O=c1oc2ccccc2c(O)c1C1CC(c2ccc(Oc3ccc(-c4ccc(Cl)cc4)cc3)cc2)Cc2ccccc21 (stereo not drawn) [Example 7, 3-{3-[4-(4'-chlorobiphenyl-4-yloxy)phenyl]-1,2,3,4-tetrahydro-1-naphthyl}-4-hydroxycoumarin] |  |  | 0.36 |
| O=c1oc2ccccc2c(O)c1C1CC(c2ccc(Cc3ccc(-c4ccc(Br)cc4)cc3)cc2)Cc2ccccc21 (stereo not drawn) [Example 8, 3-{3-[4-(4'-bromobiphenyl-4-ylmethyl)phenyl]-1,2,3,4-tetrahydro-1-naphthyl}-4-hydroxycoumarin] |  |  | 0.37 |
| O=c1oc2ccccc2c(O)c1C1CC(c2ccc(OCc3ccc(-c4ccc(-c5ccccc5)cc4)cc3)cc2)Cc2ccccc21 (stereo not drawn) [Example 9, 3-{3-[4-(4-biphenyl-4-ylbenzyloxy)phenyl]-1,2,3,4-tetrahydro-1-naphthyl}-4-hydroxycoumarin] |  |  | 0.49 |
| O=c1oc2ccccc2c(O)c1C1CC(c2ccc(Cc3ccc(-c4ccccc4)cc3)cc2)Cc2ccccc21 (stereo not drawn) [Example 10, 3-{3-[4-(biphenyl-4-ylmethyl)phenyl]-1,2,3,4-tetrahydro-1-naphthyl}-4-hydroxycoumarin] |  |  | 0.52 |
| O=c1oc2ccccc2c(O)c1C1CC(c2ccc(Oc3ccc(-c4ccccc4)cc3)cc2)Cc2ccccc21 (stereo not drawn) [Example 11, 3-{3-[4-(biphenyl-4-yloxy)phenyl]-1,2,3,4-tetrahydro-1-naphthyl}-4-hydroxycoumarin] |  |  | 0.55 |
| CC(=O)CC(c1ccccc1)c1c(O)c2ccccc2oc1=O (stereo not drawn) [Warfarin, 3-(α-acetonylbenzyl)-4-hydroxycoumarin, reference compound] |  |  | 5.2 |
